This is an account of results in ChEMBL document CHEMBL3414527, “Engineering potent and selective analogues of GpTx-1, a tarantula venom peptide antagonist of the Na(V)1.7 sodium channel” (J Med Chem, 2015).

Assay [1] concerns the target Sodium channel protein type 9 subunit alpha (Homo sapiens, UniProt Q15858). Kind of assay: Inhibition of human NaV1.7 at -140 mV holding potential by whole-cell patch clamp assay. On the technique in general: In patch-clamp work, channel activity is measured electrically.
In assay [2] the target is Sodium channel protein type 5 subunit alpha (Homo sapiens, UniProt Q14524). As to the kind of experiment: Inhibition of human NaV1.5 at -140 mV holding potential by whole-cell patch clamp assay.

Bridge positions count the residues as written; N and C are the ends. Peptide text beside a SMILES is read from it. A value given as a limit tells only on which side of the number the result lay.

Sequence of Sodium channel protein type 9 subunit alpha (Q15858 whole entry): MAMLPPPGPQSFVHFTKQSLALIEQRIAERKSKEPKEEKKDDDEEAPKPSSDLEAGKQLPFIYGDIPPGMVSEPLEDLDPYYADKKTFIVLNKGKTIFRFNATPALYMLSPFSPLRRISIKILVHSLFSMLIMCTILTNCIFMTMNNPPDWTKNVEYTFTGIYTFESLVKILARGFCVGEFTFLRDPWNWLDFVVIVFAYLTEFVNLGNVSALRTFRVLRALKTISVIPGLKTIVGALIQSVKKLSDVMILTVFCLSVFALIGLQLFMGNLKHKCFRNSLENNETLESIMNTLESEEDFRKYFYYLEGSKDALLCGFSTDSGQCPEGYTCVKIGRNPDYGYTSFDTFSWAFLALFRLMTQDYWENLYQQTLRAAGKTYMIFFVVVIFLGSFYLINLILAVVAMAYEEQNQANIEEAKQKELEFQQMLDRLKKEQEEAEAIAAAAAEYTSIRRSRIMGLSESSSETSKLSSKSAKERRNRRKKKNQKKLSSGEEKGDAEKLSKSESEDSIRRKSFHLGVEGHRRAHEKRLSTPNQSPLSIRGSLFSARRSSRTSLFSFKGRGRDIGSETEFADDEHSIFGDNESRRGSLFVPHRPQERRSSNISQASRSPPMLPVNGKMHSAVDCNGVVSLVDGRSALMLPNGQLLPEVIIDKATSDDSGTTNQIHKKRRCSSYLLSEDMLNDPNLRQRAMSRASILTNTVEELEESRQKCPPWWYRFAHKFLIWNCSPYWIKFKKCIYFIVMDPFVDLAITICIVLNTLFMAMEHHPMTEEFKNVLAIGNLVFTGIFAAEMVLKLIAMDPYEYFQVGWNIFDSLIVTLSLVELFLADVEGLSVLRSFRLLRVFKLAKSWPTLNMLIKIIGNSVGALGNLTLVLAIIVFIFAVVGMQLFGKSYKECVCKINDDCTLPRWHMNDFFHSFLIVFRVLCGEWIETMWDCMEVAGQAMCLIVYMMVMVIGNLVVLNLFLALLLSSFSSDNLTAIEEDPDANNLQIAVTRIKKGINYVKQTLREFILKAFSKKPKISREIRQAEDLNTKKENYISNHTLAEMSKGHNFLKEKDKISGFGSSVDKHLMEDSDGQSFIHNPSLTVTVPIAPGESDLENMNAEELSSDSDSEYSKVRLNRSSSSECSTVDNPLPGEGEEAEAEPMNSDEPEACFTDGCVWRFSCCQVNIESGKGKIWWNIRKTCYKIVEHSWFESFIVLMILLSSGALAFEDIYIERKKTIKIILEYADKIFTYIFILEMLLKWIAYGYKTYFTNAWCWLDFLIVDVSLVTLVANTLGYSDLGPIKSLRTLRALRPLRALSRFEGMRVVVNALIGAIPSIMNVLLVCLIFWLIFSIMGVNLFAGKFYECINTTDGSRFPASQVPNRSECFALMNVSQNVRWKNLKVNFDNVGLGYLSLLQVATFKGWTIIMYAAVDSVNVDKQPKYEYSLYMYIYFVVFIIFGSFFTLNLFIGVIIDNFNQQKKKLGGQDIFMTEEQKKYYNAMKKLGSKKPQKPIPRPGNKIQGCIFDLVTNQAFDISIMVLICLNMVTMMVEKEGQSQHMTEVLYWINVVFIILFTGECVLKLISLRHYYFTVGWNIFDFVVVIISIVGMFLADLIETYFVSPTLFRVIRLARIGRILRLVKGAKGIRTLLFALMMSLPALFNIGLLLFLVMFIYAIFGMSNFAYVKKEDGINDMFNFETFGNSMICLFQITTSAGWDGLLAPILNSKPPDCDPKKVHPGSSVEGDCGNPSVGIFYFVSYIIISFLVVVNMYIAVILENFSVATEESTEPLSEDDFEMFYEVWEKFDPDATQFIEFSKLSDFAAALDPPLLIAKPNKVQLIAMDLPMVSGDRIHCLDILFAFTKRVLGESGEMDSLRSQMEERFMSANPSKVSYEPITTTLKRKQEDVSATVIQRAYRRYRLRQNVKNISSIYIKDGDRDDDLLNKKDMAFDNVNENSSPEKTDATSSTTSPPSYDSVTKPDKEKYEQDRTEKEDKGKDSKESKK
Sequence of Sodium channel protein type 5 subunit alpha (Q14524 whole entry): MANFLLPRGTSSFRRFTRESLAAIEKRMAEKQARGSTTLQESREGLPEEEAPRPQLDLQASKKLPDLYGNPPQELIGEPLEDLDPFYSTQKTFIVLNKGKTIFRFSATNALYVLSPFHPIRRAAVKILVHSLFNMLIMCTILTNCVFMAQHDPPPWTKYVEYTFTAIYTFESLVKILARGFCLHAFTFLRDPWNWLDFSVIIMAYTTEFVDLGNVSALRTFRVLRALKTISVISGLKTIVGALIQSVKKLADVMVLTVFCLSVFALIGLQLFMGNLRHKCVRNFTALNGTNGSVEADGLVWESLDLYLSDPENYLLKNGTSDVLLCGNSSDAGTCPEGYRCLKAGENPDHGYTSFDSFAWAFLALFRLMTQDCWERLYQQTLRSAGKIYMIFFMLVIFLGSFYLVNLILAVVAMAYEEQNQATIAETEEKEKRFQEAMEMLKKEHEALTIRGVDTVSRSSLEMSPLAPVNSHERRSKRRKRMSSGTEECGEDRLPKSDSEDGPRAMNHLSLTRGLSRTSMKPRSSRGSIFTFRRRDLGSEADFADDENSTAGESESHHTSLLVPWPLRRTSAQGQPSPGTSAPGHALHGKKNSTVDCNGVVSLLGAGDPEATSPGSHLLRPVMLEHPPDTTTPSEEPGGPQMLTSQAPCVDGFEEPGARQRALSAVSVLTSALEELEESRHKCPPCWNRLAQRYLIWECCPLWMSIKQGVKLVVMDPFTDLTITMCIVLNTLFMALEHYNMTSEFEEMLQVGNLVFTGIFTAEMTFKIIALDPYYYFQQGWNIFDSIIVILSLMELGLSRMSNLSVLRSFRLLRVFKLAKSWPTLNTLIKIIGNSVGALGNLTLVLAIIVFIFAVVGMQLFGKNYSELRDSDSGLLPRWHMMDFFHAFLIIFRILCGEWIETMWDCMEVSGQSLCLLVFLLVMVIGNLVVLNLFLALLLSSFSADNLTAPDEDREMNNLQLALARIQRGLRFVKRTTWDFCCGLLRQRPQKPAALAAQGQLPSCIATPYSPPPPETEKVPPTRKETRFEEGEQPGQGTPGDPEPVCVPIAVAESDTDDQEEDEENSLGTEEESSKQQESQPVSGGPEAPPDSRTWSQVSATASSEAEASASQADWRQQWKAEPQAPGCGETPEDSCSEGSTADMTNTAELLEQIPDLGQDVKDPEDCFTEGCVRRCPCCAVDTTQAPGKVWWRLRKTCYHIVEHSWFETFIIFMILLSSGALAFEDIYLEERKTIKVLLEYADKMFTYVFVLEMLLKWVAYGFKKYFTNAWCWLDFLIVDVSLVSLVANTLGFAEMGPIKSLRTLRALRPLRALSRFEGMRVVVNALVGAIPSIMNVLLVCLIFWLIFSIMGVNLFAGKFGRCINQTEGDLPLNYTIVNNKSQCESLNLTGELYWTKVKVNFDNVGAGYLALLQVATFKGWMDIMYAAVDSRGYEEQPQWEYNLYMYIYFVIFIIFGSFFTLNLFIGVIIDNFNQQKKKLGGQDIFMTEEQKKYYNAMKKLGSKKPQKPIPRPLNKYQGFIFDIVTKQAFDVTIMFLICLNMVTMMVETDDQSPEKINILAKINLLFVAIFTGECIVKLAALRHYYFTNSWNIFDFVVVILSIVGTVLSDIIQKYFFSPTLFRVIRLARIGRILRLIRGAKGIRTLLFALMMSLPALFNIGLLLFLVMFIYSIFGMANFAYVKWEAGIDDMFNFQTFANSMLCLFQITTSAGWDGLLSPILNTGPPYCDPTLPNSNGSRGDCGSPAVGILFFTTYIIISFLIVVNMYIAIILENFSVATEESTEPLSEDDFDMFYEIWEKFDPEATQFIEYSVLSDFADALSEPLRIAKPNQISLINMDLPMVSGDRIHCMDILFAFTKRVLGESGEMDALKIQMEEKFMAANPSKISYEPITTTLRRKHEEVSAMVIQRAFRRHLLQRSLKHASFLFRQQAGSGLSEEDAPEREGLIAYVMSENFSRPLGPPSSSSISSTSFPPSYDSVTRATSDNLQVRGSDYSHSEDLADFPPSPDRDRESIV

As usually defined, the IC50 is the concentration that gives 50% inhibition. Lower therefore signals greater potency in that assay. For the compound `CC[C@@H]1NC(=O)CNC(=O)[C@H](CC(C)C)NC(=O)[C@@H](NC(=O)[C@@H](N)CC(=O)O)CSSC[C@@H]2NC(=O)[C@@H]3CSSC[C@@H](C(=O)N[C@@H](CCCCN)C(=O)N[C@@H](Cc4ccc(O)cc4)C(=O)N[C@H](C(=O)N[C@@H](Cc4ccccc4)C(N)=O)C(C)C)NC(=O)[C@H](Cc4c[nH]c5ccccc45)NC(=O)[C@H](CCCCN)NC(=O)[C@H](Cc4cnc[nH]4)NC(=O)[C@H]([C@@H](C)O)NC(=O)[C@H](CCCNC(=N)N)NC(=O)[C@H](CO)NC(=O)[C@H](CSSC[C@H](NC(=O)[C@H](CCCCN)NC(=O)[C@H](CCCNC(=N)N)NC(=O)[C@H](CCSC)NC1=O)C(=O)N[C@@H]([C@@H](C)CC)C(=O)N1CCC[C@H]1C(=O)N[C@@H](CC(=O)O)C(=O)N[C@@H](CC(N)=O)C(=O)N[C@@H](CC(=O)O)C(=O)N[C@@H](CCCCN)C(=O)N3)NC(=O)[C@H](C(C)C)NC(=O)[C@H](CC(C)C)NC(=O)[C@H](CC(N)=O)NC(=O)[C@@H]1CCCN1C(=O)[C@H](CCCNC(=N)N)NC2=O`, the results for the IC50 in assay [1] and in assay [2] were 79 nM and more than 10000 nM, respectively.
Turning to `CCC[C@@H]1NC(=O)CNC(=O)[C@H](CC(C)C)NC(=O)[C@@H](NC(=O)[C@@H](N)CC(=O)O)CSSC[C@@H]2NC(=O)[C@@H]3CSSC[C@@H](C(=O)N[C@@H](CCCCN)C(=O)N[C@@H](Cc4ccc(O)cc4)C(=O)N[C@H](C(=O)N[C@@H](Cc4ccccc4)C(N)=O)C(C)C)NC(=O)[C@H](Cc4c[nH]c5ccccc45)NC(=O)[C@H](CCCCN)NC(=O)[C@H](Cc4cnc[nH]4)NC(=O)[C@H]([C@@H](C)O)NC(=O)[C@H](CCCNC(=N)N)NC(=O)[C@H](CO)NC(=O)[C@H](CSSC[C@H](NC(=O)[C@H](CCCCN)NC(=O)[C@H](CCCNC(=N)N)NC(=O)[C@H](CCSC)NC1=O)C(=O)N[C@@H]([C@@H](C)CC)C(=O)N1CCC[C@H]1C(=O)N[C@@H](CC(=O)O)C(=O)N[C@@H](CC(N)=O)C(=O)N[C@@H](CC(=O)O)C(=O)N[C@@H](CCCCN)C(=O)N3)NC(=O)[C@H](C(C)C)NC(=O)[C@H](CC(C)C)NC(=O)[C@H](CC(N)=O)NC(=O)[C@@H]1CCCN1C(=O)[C@H](CCCNC(=N)N)NC2=O`, the half-maximal inhibitory concentration (IC50) in assay [1] was 39 nM; in assay [2], more than 10000 nM.
The like results for `CC[C@H](C)[C@@H]1NC(=O)[C@@H]2CSSC[C@@H]3NC(=O)[C@H](C(C)C)NC(=O)[C@H](CC(C)C)NC(=O)[C@H](CC(N)=O)NC(=O)[C@@H]4CCCN4C(=O)[C@H](CCCNC(=N)N)NC(=O)[C@H](CSSC[C@H](NC(=O)[C@@H](N)CC(=O)O)C(=O)N[C@@H](CC(C)C)C(=O)NCC(=O)N(C)[C@@H](CC(C)C)C(=O)N[C@@H](CCSC)C(=O)N[C@@H](CCCNC(=N)N)C(=O)N[C@@H](CCCCN)C(=O)N2)NC(=O)[C@H](CSSC[C@@H](C(=O)N[C@@H](CCCCN)C(=O)N[C@@H](Cc2ccc(O)cc2)C(=O)N[C@H](C(=O)N[C@@H](Cc2ccccc2)C(N)=O)C(C)C)NC(=O)[C@H](Cc2c[nH]c4ccccc24)NC(=O)[C@H](CCCCN)NC(=O)[C@H](Cc2cnc[nH]2)NC(=O)[C@H]([C@@H](C)O)NC(=O)[C@H](CCCNC(=N)N)NC(=O)[C@H](CO)NC3=O)NC(=O)[C@H](CCCCN)NC(=O)[C@H](CC(=O)O)NC(=O)[C@H](CC(N)=O)NC(=O)[C@H](CC(=O)O)NC(=O)[C@@H]2CCCN2C1=O` were, in that order, 25 nM and more than 10000 nM.
The like results for `CC[C@H](C)[C@@H]1NC(=O)[C@@H]2CSSC[C@@H]3NC(=O)[C@H](C(C)C)NC(=O)[C@H](CC(C)C)NC(=O)[C@H](CC(N)=O)NC(=O)[C@@H]4CCCN4C(=O)[C@H](CCCNC(=N)N)NC(=O)[C@H](CSSC[C@H](NC(=O)[C@@H](N)CC(=O)O)C(=O)N[C@@H](CC(C)C)C(=O)NCC(=O)N[C@@H](C(C)(C)C)C(=O)N[C@@H](CCSC)C(=O)N[C@@H](CCCNC(=N)N)C(=O)N[C@@H](CCCCN)C(=O)N2)NC(=O)[C@H](CSSC[C@@H](C(=O)N[C@@H](CCCCN)C(=O)N[C@@H](Cc2ccc(O)cc2)C(=O)N[C@H](C(=O)N[C@@H](Cc2ccccc2)C(N)=O)C(C)C)NC(=O)[C@H](Cc2c[nH]c4ccccc24)NC(=O)[C@H](CCCCN)NC(=O)[C@H](Cc2cnc[nH]2)NC(=O)[C@H]([C@@H](C)O)NC(=O)[C@H](CCCNC(=N)N)NC(=O)[C@H](CO)NC3=O)NC(=O)[C@H](CCCCN)NC(=O)[C@H](CC(=O)O)NC(=O)[C@H](CC(N)=O)NC(=O)[C@H](CC(=O)O)NC(=O)[C@@H]2CCCN2C1=O` were, in that order, 24 nM and more than 10000 nM.
As for `CC[C@H](C)[C@@H]1NC(=O)[C@@H]2CSSC[C@@H]3NC(=O)[C@H](C(C)C)NC(=O)[C@H](CC(C)C)NC(=O)[C@H](CC(N)=O)NC(=O)[C@@H]4CCCN4C(=O)[C@H](CCCNC(=N)N)NC(=O)[C@H](CSSC[C@H](NC(=O)[C@@H](N)CC(=O)O)C(=O)N[C@@H](CC(C)C)C(=O)NCC(=O)N[C@@H](C)C(=O)N[C@@H](Cc4cccc5ccccc45)C(=O)N[C@@H](CCCNC(=N)N)C(=O)N[C@@H](CCCCN)C(=O)N2)NC(=O)[C@H](CSSC[C@@H](C(=O)N[C@@H](CCCCN)C(=O)N[C@@H](Cc2ccc(O)cc2)C(=O)N[C@H](C(=O)N[C@@H](Cc2ccccc2)C(N)=O)C(C)C)NC(=O)[C@H](Cc2c[nH]c4ccccc24)NC(=O)[C@H](CCCCN)NC(=O)[C@H](Cc2cnc[nH]2)NC(=O)[C@H]([C@@H](C)O)NC(=O)[C@H](CCCNC(=N)N)NC(=O)[C@H](CO)NC3=O)NC(=O)[C@H](CCCCN)NC(=O)[C@H](CC(=O)O)NC(=O)[C@H](CC(N)=O)NC(=O)[C@H](CC(=O)O)NC(=O)[C@@H]2CCCN2C1=O`, the IC50 in assay [1] turned out to be 3 nM; in assay [2], 3600 nM.
The like results for `CC[C@H](C)[C@@H]1NC(=O)[C@@H]2CSSC[C@@H]3NC(=O)[C@H](C(C)C)NC(=O)[C@H](CC(C)C)NC(=O)[C@H](CC(N)=O)NC(=O)[C@@H]4CCCN4C(=O)[C@H](CCCNC(=N)N)NC(=O)[C@H](CSSC[C@H](NC(=O)[C@@H](N)CC(=O)O)C(=O)N[C@@H](C)C(=O)NCC(=O)N[C@@H](Cc4ccccc4)C(=O)N[C@@H](CCSC)C(=O)N[C@@H](CCCNC(=N)N)C(=O)N[C@@H](CCCCN)C(=O)N2)NC(=O)[C@H](CSSC[C@@H](C(=O)N[C@@H](CCCCN)C(=O)N[C@@H](Cc2ccc(O)cc2)C(=O)N[C@H](C(=O)N[C@@H](Cc2ccccc2)C(N)=O)C(C)C)NC(=O)[C@H](Cc2c[nH]c4ccccc24)NC(=O)[C@H](CCCCN)NC(=O)[C@H](Cc2cnc[nH]2)NC(=O)[C@H]([C@@H](C)O)NC(=O)[C@H](CCCNC(=N)N)NC(=O)[C@H](CO)NC3=O)NC(=O)[C@H](CCCCN)NC(=O)[C@H](CC(=O)O)NC(=O)[C@H](CC(N)=O)NC(=O)[C@H](CC(=O)O)NC(=O)[C@@H]2CCCN2C1=O` (H-DCAGFMRKCIPDNDKCCRPNLVCSRTHKWCKYVF-NH2; disulfide 2-17, 9-23, 16-30) were, in that order, 430 nM and more than 5000 nM.
The like results for `CC[C@H](C)[C@@H]1NC(=O)[C@@H]2CSSC[C@@H]3NC(=O)[C@H](C(C)C)NC(=O)[C@H](CC(C)C)NC(=O)[C@H](CC(N)=O)NC(=O)[C@@H]4CCCN4C(=O)[C@H](CCCNC(=N)N)NC(=O)[C@H](CSSC[C@H](NC(=O)[C@@H](N)CC(=O)O)C(=O)N[C@@H](CC(C)C)C(=O)NCC(=O)N[C@@H](C)C(=O)N[C@@H](Cc4ccccc4)C(=O)N[C@@H](CCCNC(=N)N)C(=O)N[C@@H](CCCCN)C(=O)N2)NC(=O)[C@H](CSSC[C@@H](C(=O)N[C@@H](CCCCN)C(=O)N[C@@H](Cc2ccc(O)cc2)C(=O)N[C@H](C(=O)N[C@@H](Cc2ccccc2)C(N)=O)C(C)C)NC(=O)[C@H](Cc2c[nH]c4ccccc24)NC(=O)[C@H](CCCNC(=N)N)NC(=O)[C@H](Cc2cnc[nH]2)NC(=O)[C@H](CC(C)C)NC(=O)[C@H](CCCNC(=N)N)NC(=O)[C@H](CO)NC3=O)NC(=O)[C@H](CCCCN)NC(=O)[C@H](CC(=O)O)NC(=O)[C@H](CC(N)=O)NC(=O)[C@H](CC(=O)O)NC(=O)[C@@H]2CCCN2C1=O` (H-DCLGAFRKCIPDNDKCCRPNLVCSRLHRWCKYVF-NH2; disulfide 2-17, 9-23, 16-30) were, in that order, 1.6 nM and more than 10000 nM.
The like results for `CC[C@H](C)[C@@H]1NC(=O)[C@@H]2CSSC[C@@H]3NC(=O)[C@H](C(C)C)NC(=O)[C@H](CC(C)C)NC(=O)[C@H](CC(N)=O)NC(=O)[C@@H]4CCCN4C(=O)[C@H](CCCNC(=N)N)NC(=O)[C@H](CSSC[C@H](NC(=O)[C@@H](N)CC(=O)O)C(=O)N[C@@H](CC(C)C)C(=O)NCC(=O)N[C@@H](C)C(=O)N[C@@H](CCSC)C(=O)N[C@@H](CCCNC(=N)N)C(=O)N[C@@H](CCCCN)C(=O)N2)NC(=O)[C@H](CSSC[C@@H](C(=O)N[C@@H](CCCCN)C(=O)N[C@@H](Cc2ccc(O)cc2)C(=O)N[C@H](C(=O)N[C@@H](Cc2ccccc2)C(N)=O)C(C)C)NC(=O)[C@H](Cc2c[nH]c4ccccc24)NC(=O)[C@H](CCCCN)NC(=O)[C@H](Cc2cnc[nH]2)NC(=O)[C@H](CC(C)C)NC(=O)[C@H](CCCNC(=N)N)NC(=O)[C@H](CO)NC3=O)NC(=O)[C@H](CCCCN)NC(=O)[C@H](CC(=O)O)NC(=O)[C@H](CC(N)=O)NC(=O)[C@H](CC(=O)O)NC(=O)[C@@H]2CCCN2C1=O` (H-DCLGAMRKCIPDNDKCCRPNLVCSRLHKWCKYVF-NH2; disulfide 2-17, 9-23, 16-30) were, in that order, 54 nM and more than 10000 nM.
